SMILES strings stand for the structures. “And” between values parts separate entries of the source, which are not always exact repeats. Identical values can stand only once.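 Grown in 96-well plates, cells were treated for 48 hours with each compound at five concentrations. Insufficient inhibition: endpoint recorded as highest concentration tested. Here, GI50 denotes the concentration required for 50% inhibition of growth. TGI denotes the concentration required for complete inhibition of growth.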

What all share (test): NCI-60 cell line screen, 48 h
Test [1] concerns HL-60(TB) leukemia.
Test [2] has as its system SF-268 CNS.
Test [3] has as its system MCF7 breast.
For test [4], the system named is BT-549 breast.
Test [5] relates to SK-MEL-28 melanoma.
For test [6], the system named is DU-145 prostate.
For test [7], the system named is NCI-H522 lung.
The subject of test [8] is MDA-MB-435.
Test [9] relates to MALME-3M melanoma.
The subject of test [10] is UACC-62 melanoma.

For `CC(Cl)(CCC(Cl)C(C)(C)Cl)C(=O)CBr` (configuration not stated), the TGI is > 100 µM in [1]; 31.7 µM in test [2]; 28.5 µM in [3]; 27.3 µM in [4]; 31.6 µM in test [5]; 33.7 µM in [6]. The TGI in [7] stood at 3.94 µM; in test [8], 30.6 µM; in test [9], 24.8 µM; in test [10], 22.7 µM.
For `CCOP(=O)(OCC)C(c1ccccc1)N(C(=O)NC(F)(F)F)c1ccc(C)cc1` (configuration not stated), the TGI in test [1], in test [2], in [3], in [4], in test [5] and in test [6] was > 100 µM in each case. Moreover, the TGI in test [7], in test [8], in test [9] and in test [10] was > 100 µM in each case.
For `O=C(NC1=C(Cl)C(=O)c2ccccc2C1=O)C(=O)c1c(O)c2ccccc2oc1=O`, the TGI in test [1] was found to be 29.1 µM; in [2] it was 25.6 µM; in test [3] it was 8.39 µM; in test [4], 14.6 µM; in [5], 6.2 µM; in test [6] it was 2.93 µM. The TGI was found to be 16.1 µM in [7], 2.97 µM in test [8], 2.7 µM in test [9] and 4.58 µM in test [10].
Consider `CC1(C)CC(=O)C2=C(C1)NC(=S)C(C#N)C2c1ccccc1` (configuration not stated), for which the TGI in test [1], in test [2], in test [3], in test [4], in test [5] and in test [6] was > 100 µM throughout. Besides, the TGI in test [7], in test [8], in [9] and in [10] was > 100 µM throughout.
As for `O=C(Oc1cncc(Cl)c1)c1cc2ccccc2sc1=O`, the TGI in test [1], in test [2], in test [3], in test [4], in test [5] and in test [6] was > 100 µM throughout. Moreover, the TGI in test [7] was 47.3 µM; in [8], > 100 µM; in test [9], > 100 µM; in [10] it was > 100 µM.
For `CNCC(SC)c1ccc(O)c(O)c1` (configuration not stated), the TGI in test [1] is 37.5 µM; in [2], > 100 µM; in [3], 87.4 µM; in test [4], 31 µM; in test [5] it was > 100 µM; in test [6], 37.4 µM. Moreover, the TGI in test [7] was 34.5 µM; in test [8] it was > 100 µM; in test [9], 32.4 µM; in test [10], > 100 µM.
For the compound `COC1(C)CCC(OS(C)(=O)=O)CO1` (configuration not stated), the TGI in test [1], in test [2], in test [3], in test [4], in [5] and in test [6] was > 100 µM in each case. The TGI in test [7], in test [8], in [9] and in test [10] was > 100 µM throughout.
Consider `Cc1cccc(NC(=S)Nc2cccc(Cl)c2)n1`, for which the TGI in test [1], in test [2], in test [3], in test [4], in [5] and in test [6] was > 100 µM throughout. In addition, the TGI in test [7], in [8], in test [9] and in [10] was > 100 µM throughout.
With `CC(C)=CC(=O)OC1C2C(C)=CC(=O)C(O)C2(C)C2C3(O)OCC24C(CC(=O)OC14)C(C)C3O` (configuration not stated), the GI50 in test [1] is 20 nM; in test [2], 8.8 nM; in test [3] it was 1.59 nM; in test [5], 20 nM; in test [6], 22.5 nM; in [7], 20 nM. Besides, the GI50 in test [9] was 4.75 nM; in test [10], 20.4 nM. The TGI was 0.049 µM and 0.014 µM and 0.091 µM in test [2]; 0.00664 µM in test [3]; 0.00846 µM in [4]; 0.0175 µM and 0.0363 µM in [5]; 0.0173 µM and 0.141 µM in test [6]; 0.011 µM and 0.0215 µM in test [7]. For the same compound, the TGI in test [8] was 0.0103 µM; in test [9] it was 0.0136 µM; in [10], 0.0313 µM and 0.0404 µM.
Turning to `CC(C)(C)c1cc(C(C)(C)C)c(SC2OC(CO)C(O)C(O)C2O)c(O)c1O` (configuration not stated), the TGI is 14.5 µM in [1]; 20.4 µM in test [2]; > 34.2 µM in test [3]; 27 µM in test [4]; 70.5 µM in test [5]; 31.8 µM in test [6]. The TGI in [7] is 20.9 µM; in test [8] it was 21 µM; in test [9] it was 26.9 µM; in test [10], 4.99 µM.
As to `COC(=O)CCCc1nc2ccccc2nc1N=Nc1ccccc1`, the TGI in test [1] is 20.1 µM; in [2] it was > 100 µM; in [3], > 100 µM; in test [4] it was > 100 µM; in test [5] it was > 100 µM; in test [6], > 100 µM. Also, the TGI in [7] was 68.5 µM; in test [8] it was > 100 µM; in [9] it was 74.7 µM; in test [10] it was > 100 µM.

(Values after PubChem BioAssay (NCI).)
